What follows are compounds tested on NQO1 specific enzyme activity in BEAS-2B cells (marker for NRF2 activation) (assay: BEAS-2B NQO1 MTT Assay). Settings: Homo sapiens, BEAS-2B, 48 h, NQO1 specific activity induction, 48 hours with compound.
Format: cell-based
Method in brief: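 Cells plated overnight at 37° C., 5% CO2, then exposed to compound for 48 hours. NQO1 activity read in crude lysates with MTT cocktail as kinetic absorbance at 570 nm over 30 minutes. pEC50 from Delta OD/min versus log concentration with a 3-parameter fit.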
Compound `CC[C@@H]1Cc2ccccc2S(=O)(=O)N(Cc2cc([C@@H](OCc3cn(CC)nn3)C(C)(C)C(=O)O)ccc2C)C1` [Example 77, (3R)-((1-ethyl-1H-1,2,3-triazol-4-yl)methoxy)-2,2-dimethyl-3-(4-methyl-3-(((R)-4-ethyl-1,1-dioxido-4,5-dihydrobenzo[f][1,2]thiazepin-2(3H)-yl)methyl)phenyl)propanoic acid] has an EC50 of 1 to 10 nM.
In the case of `CCCn1cc(CO[C@H](c2ccc(C)c(CN3CC(C)(C)Oc4ccccc4S3(=O)=O)c2)C(C)(C)C(=O)O)nn1` [Example 78, (R)-3-(3-((4,4-dimethyl-1,1-dioxido-3,4-dihydro-2H-benzo[b][1,4,5]oxathiazepin-2-yl)methyl)-4-methylphenyl)-2,2-dimethyl-3-((1-propyl-1H-1,2,3-triazol-4-yl)methoxy)propanoic acid], the EC50 is reported as 1 to 10 nM.
`CCCn1cc(CO[C@H](c2ccc(C)c(CN3C[C@H](C)Cc4ccc(C(F)(F)F)cc4S3(=O)=O)c2)C(C)(C)C(=O)O)nn1` [Example 79, (R)-2,2-dimethyl-3-(4-methyl-3-(((R)-4-methyl-1,1-dioxido-8-(trifluoromethyl)-4,5-dihydrobenzo[f][1,2]thiazepin-2(3H)-yl)methyl)phenyl)-3-((1-propyl-1H-1,2,3-triazol-4-yl)methoxy)propanoic acid] was tested, and the EC50 was 1 to 10 nM.
In the case of `COCCOCCn1cc(CO[C@H](c2ccc(C)c(CN3C[C@@H](C)Oc4ccccc4S3(=O)=O)c2)C(C)(C)C(=O)O)nn1` [Example 80, (R)-3-((1-(2-(2-methoxyethoxy)ethyl)-1H-1,2,3-triazol-4-yl)methoxy)-2,2-dimethyl-3-(4-methyl-3-(((R)-4-methyl-1,1-dioxido-3,4-dihydro-2H-benzo[b][1,4,5]oxathiazepin-2-yl)methyl)phenyl)propanoic acid], the EC50 is reported as 1 to 10 nM.
In the case of `CC[C@H]1Cc2ccccc2S(=O)(=O)N(Cc2cc([C@H](OCc3cn(CC)nn3)C(C)(C)C(=O)O)ccc2C)C1` [Example 81, (3S)-((1-ethyl-1H-1,2,3-triazol-4-yl)methoxy)-2,2-dimethyl-3-(4-methyl-3-(((S)-4-ethyl-1,1-dioxido-4,5-dihydrobenzo[f][1,2]thiazepin-2(3H)-yl)methyl)phenyl)propanoic acid], the EC50 is reported as 1 to 10 nM.
`CC[C@@H]1CN(Cc2cc([C@@H](OCc3cn(CC)nn3)C(C)(C)C(=O)O)ccc2C)S(=O)(=O)c2ncccc2O1` [Example 82, (R)-3-(3-(((R)-4-ethyl-1,1-dioxido-3,4-dihydro-2H-pyrido[3,2-b][1,4,5]oxathiazepin-2-yl)methyl)-4-methylphenyl)-3-((1-ethyl-1H-1,2,3-triazol-4-yl)methoxy)-2,2-dimethylpropanoic acid] was tested, and the EC50 was 1 to 10 nM.
In the case of `CCCn1cc(CO[C@H](c2ccc(C)c(CN3C[C@@H](C)Cc4ccncc4S3(=O)=O)c2)C(C)(C)C(=O)O)nn1` [Example 83, (R)-2,2-dimethyl-3-(4-methyl-3-(((S)-4-methyl-1,1-dioxido-4,5-dihydropyrido[4,3-f][1,2]thiazepin-2(3H)-yl)methyl)phenyl)-3-((1-propyl-1H-1,2,3-triazol-4-yl)methoxy)propanoic acid], the EC50 is reported as < 1 nM.
With `CCn1cc(CO[C@H](c2ccc(C)c(CN3C[C@@H](C)Cc4ccccc4S3(=O)=O)c2)C(C)(C)C(=O)O)nn1` [Example 84] the EC50 was < 1 nM.
With `CC[C@H]1Cc2ccccc2S(=O)(=O)N(Cc2cc([C@@H](OCc3cn(CC)nn3)C(C)(C)C(=O)O)ccc2C)C1` [Example 85, (3R)-((1-ethyl-1H-1,2,3-triazol-4-yl)methoxy)-2,2-dimethyl-3-(4-methyl-3-(((S)-4-ethyl-1,1-dioxido-4,5-dihydrobenzo[f][1,2]thiazepin-2(3H)-yl)methyl)phenyl)propanoic acid] the EC50 was < 1 nM.
`CCCn1cc(CO[C@H](c2ccc(C)c(CN3C[C@@H](C)Cc4ccc(C(F)(F)F)cc4S3(=O)=O)c2)C(C)(C)C(=O)O)nn1` [Example 86, (R)-2,2-dimethyl-3-(4-methyl-3-(((S)-4-methyl-1,1-dioxido-8-(trifluoromethyl)-4,5-dihydrobenzo[f][1,2]thiazepin-2(3H)-yl)methyl)phenyl)-3-((1-propyl-1H-1,2,3-triazol-4-yl)methoxy)propanoic acid] was tested, and the EC50 was < 1 nM.
In the case of `CCCn1cc(CO[C@H](c2ccc(C)c(CN3C[C@@H](C)Cc4ccc(F)cc4S3(=O)=O)c2)C(C)(C)C(=O)O)nn1` [Example 87, (R)-3-(3-(((S)-8-fluoro-4-methyl-1,1-dioxido-4,5-dihydrobenzo[f][1,2]thiazepin-2(3H)-yl)methyl)-4-methylphenyl)-2,2-dimethyl-3-((1-propyl-1H-1,2,3-triazol-4-yl)methoxy)propanoic acid], the EC50 is reported as < 1 nM.
With `CCCn1cc(CO[C@H](c2ccc(C)c(CN3C[C@@H](C)Cc4ccccc4S3(=O)=O)c2)C(C)(C)C(=O)O)nn1` [Example 88, (R)-2,2-dimethyl-3-(4-methyl-3-(((S)-4-methyl-1,1-dioxido-4,5-dihydrobenzo[f][1,2]thiazepin-2(3H)-yl)methyl)phenyl)-3-((1-propyl-1H-1,2,3-triazol-4-yl)methoxy)propanoic acid] the EC50 was < 1 nM.
`CCCn1cc(CO[C@H](c2ccc(C)c(CN3C[C@@H](C)Cc4ncccc4S3(=O)=O)c2)C(C)(C)C(=O)O)nn1` [Example 89, (R)-2,2-dimethyl-3-(4-methyl-3-(((S)-4-methyl-1,1-dioxido-4,5-dihydropyrido[2,3-f][1,2]thiazepin-2(3H)-yl)methyl)phenyl)-3-((1-propyl-1H-1,2,3-triazol-4-yl)methoxy)propanoic acid] was tested, and the EC50 was < 1 nM.
In the case of `CCCn1cc(CO[C@H](c2ccc(C)c(CN3C[C@@H](CC)Oc4ccccc4S3(=O)=O)c2)C(C)(C)C(=O)O)nn1` [Example 90, (R)-3-(3-(((R)-4-ethyl-1,1-dioxido-3,4-dihydro-2H-benzo[b][1,4,5]oxathiazepin-2-yl)methyl)-4-methylphenyl)-2,2-dimethyl-3-((1-propyl-1H-1,2,3-triazol-4-yl)methoxy)propanoic acid], the EC50 is reported as < 1 nM.
Compound `CCn1cc(CO[C@H](c2ccc(C)c(CN(Cc3cccc(C(=O)O)c3)S(=O)(=O)c3ccccc3)c2)C(C)(C)C(=O)O)nn1` [Example 91, (R)-3-((N-(5-(2-carboxy-1-((1-ethyl-1H-1,2,3-triazol-4-yl)methoxy)-2-methylpropyl)-2-methylbenzyl)phenylsulfonamido)methyl)benzoic acid] has an EC50 of 1000 to 10000 nM.
`CCCn1cc(CO[C@H](c2ccc(C)c(CN(Cc3cccc(C(=O)O)c3)S(=O)(=O)c3cccc(C(=O)O)c3)c2)C(C)(C)C(=O)O)nn1` [Example 92, (R)-3-(N-(5-(2-carboxy-2-methyl-1-((1-propyl-1H-1,2,3-triazol-4-yl)methoxy)propyl)-2-methylbenzyl)-N-(3-carboxybenzyl)sulfamoyl)benzoic acid] gave an EC50 of 1000 to 10000 nM.
`COCCn1cc(CO[C@H](c2ccc(C)c(CN(Cc3ccccn3)S(=O)(=O)c3cccc(C(=O)O)c3)c2)C(C)(C)C(=O)O)nn1` [Example 93, (R)-3-(N-(5-(2-carboxy-1-((1-(2-methoxyethyl)-1H-1,2,3-triazol-4-yl)methoxy)-2-methylpropyl)-2-methylbenzyl)-N-(pyridin-2-ylmethyl)sulfamoyl)benzoic acid] was tested, and the EC50 was 100 to 1000 nM.
`COCCn1cc(CO[C@H](c2ccc(C)c(CN(Cc3ccccc3)S(=O)(=O)c3cccc(C(=O)O)c3)c2)C(C)(C)C(=O)O)nn1` [Example 94, (R)-3-(N-benzyl-N-(5-(2-carboxy-1-((1-(2-methoxyethyl)-1H-1,2,3-triazol-4-yl)methoxy)-2-methylpropyl)-2-methylbenzyl)sulfamoyl)benzoic acid] gave an EC50 of 100 to 1000 nM.

Source: patent publication US12091409B2, “Ether linked triazoles as NRF2 activators” (ASTEX THERAPEUTICS LIMITED, priority 2016, dated 2024)
